Columns and labels:
[1] = test system: ALS patients; conditions: human, in vivo
Method: Five ALS patients (men, women, duration of disease one, one, three and one-half, four and three years, respectively) were given TRH as a continuous intravenous infusion. […] For about one-fifth of the days, the patients were given saline placebo.
It should be noted that the TRH administered in Example I was infused at a rate of up to 200 mg. over a twenty-four hour period. In terms of presence in the body at any one time, this amounted to an infusion rate of about 0.14 mg/minute ([…] body weight based upon the average patient weight of 70 kg). Accordingly, and in view of the significant results shown in Examples II-VIII, it appears that an elevated initial dose and consequently a blood level peak, providing a pulse-effect, is required each time TRH is given. Specifically, in Example IV, intravenous infusion at one milligram per minute (over seven times the infusion rate in Example I) produced an improvement of strength in several muscle functions. […] In Example IV, an acute increase in strength occurred at 4.7 mg/minute intravenously.
There were several control aspects of the TRH studies. […] The patients given subcutaneous TRH had treatments interspersed with saline placebo injections. […] The time course of response was not known before the study and, in fact, it was expected that the onset would be later and the duration of response longer than was actually found. […]

[2] = test system: ALS patients; assay type: in vivo, human
Method: Three fasting ALS patients (men aged 37 and 60 and a person; duration of disease three-quarters of a year, one and three years, respectively) were each given an intravenous infusion of TRH in which the dose increased in seven steps from 0.5 to 19 mg/minute over sixty to eighty minutes (total dose 320, 432 and 500 mg). The two men had major spasticity from upper motor neuron involvement and weakness from lower motor neuron involvement. […] Shivering, tachypnoea and sweating increased further with rising dosage, and in the two men the infusion was stopped at 19 mg/minute, after 320 and 432 mg total, because of tachypnoea (40-45 breaths per minute) and vigorous shivering. There also was a transient increase in pulse rate (10-15 beats per minute). The men experienced sensations of coolness or warmth of the anterior lower chest and abdomen. One of the men felt "bad all over" at 19 mg/minute. […] At that time, a spinal lumbar puncture was performed to obtain cerebrospinal fluid for analysis as hereinafter described. The patient had no spasticity, only weakness from lower motor neuron involvement. […] Their infusion was stopped when the drug supply was depleted (at 500 mg total dose). The dosage was not stopped because of side-effects of TRH. […] Experience with the additional patients confirmed the observation that there is more shivering side-effect in the patients with more spasticity.
(§1) There were several control aspects of the TRH studies. […] The patients given subcutaneous TRH had treatments interspersed with saline placebo injections. […] The time course of response was not known before the study and, in fact, it was expected that the onset would be later and the duration of response longer than was actually found. Different patients responded to different doses of TRH, and the sex difference in response (woman apparently less responsive) was not expected. […] There were three observers, one unaware of the infusion status. In addition, clinical examinations of all patients of Examples III-VII were videotaped and later reviewed by several observers.

[3] = test system: ALS patients; assay type: in vivo, human; remark: listed apart in the source
Method: Nine fasting ALS patients (seven men, and two women; duration of disease, two, three, five-sixths of a year, five-sixths of a year, two and a half, four, one, one and four years, respectively) were given intravenous TRH at rates of 0.5-8 mg/minute, total 500 mg during two to five hours in one day, for one or two days. Due to the fact that the effects during the second day resembled those on the first day in the first two patients (men) and because supplies of TRH were limited, […] were treated for one day only. Before and throughout TRH administration, motor functions were repeatedly examined, the tests being selected according to the specific clinical involvement in each patient. Testing in all patients was videotaped. […] For example, muscles (such as biceps, triceps, deltoid, iliopsoas, or peroneal) that could be overcome easily by one finger before TRH administration became completely resistant to the full force of the examiner's hand (i.e., became normal or virtually normal). In one person, thumb abduction and finger-thumb pincer movement, easily overcome before the infusion of TRH, became normal. […] Speech clarity and volume improved. Spasticity of the legs lessened, as evidenced by easier, more rapid and "looser" bicycling-like movement, heel-shin movement and heel-knee tapping of the legs, as well as more agile walking.
As an extension of the Example III and IV studies, a total of twenty-three patients (including those of Examples II and IV) were given 156 intravenous dose-days total.
as §1

[4] = test system: non-ALS person with chronic juvenile proximal spinal muscular atrophy; assay type: in vivo, human

Which results are given for NC(=O)[C@@H]1CCCN1C(=O)[C@H](Cc1cnc[nH]1)NC(=O)[C@@H]1CCC(=O)N1 [TRH, L-pyroglutamyl-L-histidyl-L-prolinamide]?
transient rise in serum aminotransferases [1]: has not been found; effectiveness of low intravenous dose ([2]; 0.5 mg/minute for twenty minutes, Examples II and III): not found to be effective; dose at which shivering, tachypnoea and sweating began ([2]; human, in vivo, iv): 8 mg/min; transient increase in pulse rate ([2]; human, in vivo, iv): 10-15 beats per minute; dose at which movement and strength of legs, arms and tongue began to improve, with decreased spasticity ([2]; i.v. infusion increased in seven steps 0.5 to 19 mg/minute, two men): 2 to 4 mg/min; persistence of benefits and side effects after infusion ([2]; i.v. stepwise infusion): no longer obvious thirty minutes after the infusion ended; response of patient with no spasticity, only lower motor neuron weakness ([2]; i.v., 500 mg total dose): only slight subjective improvement in strength without obvious objective improvement; intravenous rate at which striking improvement was shown ([3]; Examples II and III (summary)): 2 mg/min; minimum intravenous infusion rate per body weight ([3]; based on average patient weight of 70 kilograms): ≥ 14.3 μg/minute/kg of body weight; benefit and side-effects in the two women ([3]; i.v. 0.5-8 mg/minute): much less benefit and many fewer side-effects than the men; quantitative response of women relative to men ([3]; i.v. 0.5-8 mg/minute): resembled those of men on one-half to one-fourth of the TRH dosage; ankle clonus ([3]; i.v. 2-8 mg/minute): decreased or disappeared; brisk tendon reflexes ([3]; i.v. 2-8 mg/minute): diminished not at all or only slightly; extensor plantar (Babinski) responses ([3]; i.v. 2-8 mg/minute): improved, becoming neutral or normal flexor; fasciculations ([3]; i.v. 2-8 mg/minute): appeared to be unchanged; spasticity of the legs ([3]; i.v. 2-8 mg/minute): lessened; speech clarity and volume ([3]; i.v. 2-8 mg/minute): improved; vital capacity ([3]; i.v. 2-8 mg/minute): increased, by as much as one liter; residual improvement after the end of the infusion ([3]; i.v., total 500 mg): some slight improvement still evident twenty hours after the end of the infusion; time improvements were sustained after the infusion ([3]; i.v., total 500 mg during two to five hours): one-half to one hour afterwards; improvement of muscle weakness and spasticity ([3]; men, i.v. 2-8 mg/minute, in some areas of involvement): striking improvement; duration of full benefit after intravenous infusions ([3]; summary): up to one hour; muscle strength ([4]; 1-8 mg/minute i.v., 500 mg total, several muscle functions): slight to moderate improvement of strength; sensitivity to TRH relative to the men ([4]; i.v.): one-fourth to one-eighth as sensitive; intravenous rate at which an acute increase in strength occurred ([4]; printed as Example IV (summary)): 4.7 mg/min
